Among the data in patent US12319655B2, “RAF kinase inhibitors and methods of use thereof” (Deciphera Pharmaceuticals, LLC, priority 2021, dated 2025) are IC50 values, retold here.

Each structure is given as a SMILES string.

One experiment relates to WM3928 cells. Description: WM3928 Cell Proliferation Assay (2). The experiment is classed as cell-based.
The test system of a further experiment is Miapaca-2 cells. Briefly: MiaPaca-2 Combination Cell Proliferation Assay (2) with cobimetinib. The experiment is classed as cell-based. The note with it: MiaPaca-2 cell proliferation, read-out: MiaPaca-2 Combo (2) IC50. As for the experimental part: MiaPaca-2 Combination Cell Proliferation Assay (2)
Miapaca-2 cells (catalog #CRL-1420) are obtained from the American Type Culture Collect (ATCC, Manassas, VA). Briefly, cells were grown in DMEM supplemented with 10% characterized fetal bovine serum (Invitrogen, Carlsbad, CA), 2.5% New Zealand sourced horse serum and 1% Penicillin/Streptomycin/L-Glutamine at 37° C., 5% CO2, and 95% humidity. Cells are expanded until reaching 70-95% confluency at which point they are subcultured or harvested for assay use. Using the Beckman Coulter Echo 650, a threefold, 8-point serial dilution of compound was spotted column wise into a 384 well black, clear bottom, tissue culture treated plate. Likewise, a threefold, 8-point serial dilution of cobimetinib was spotted row wise into the 384 well black, clear bottom plate containing compound. DMSO concentration was constant across all wells at 0.4%. Seven hundred fifty cells are added per well in 50 μL complete growth medium in each 384-well plate. Plates are incubated for 67-72 hours at 37° C., 5% CO2, and 95% humidity. At the end of the incubation, 10 μL of a 440 μM solution of resazurin (Sigma, St. Louis, MO) in PBS is added to each well of the plate and plates are incubated for an additional 4-6 hours at 37° C., 5% CO2, and 95% humidity. Plates are read on a Synergy2 or equivalent reader (Biotek, Winooski VT) using an excitation of 540 nm and an emission of 600 nm. Drug synergy was assessed via BLISS analysis in the Combenefit software (Cancer Research UK Cambridge Institute, Cambridge, UK). Data is analyzed using Prism software (Graphpad, San Diego, CA) to calculate IC50 values. Shifts in test compound IC50 values are reported from top-constrained combination therapy curves.

What is called IC50 is the point on the concentration scale where inhibition reaches its midpoint. For `CC(C)(F)c1cc(C(=O)Nc2ccc(F)c(-c3ccnc(-c4ccnc(C(N)=O)c4)c3)c2)ccn1` [Example 491], in the experiment on WM3928 cells, the concentration for half-maximal inhibition (IC50) lay in the range of 500 to 1000 nM.

As to `[2H]C([2H])([2H])NC(=O)c1cc(-c2cc(-c3cc(NC(=O)c4ccnc(C5(F)CC5)c4)ccc3C)cc(C)n2)ccn1` [Example 498], the 50% inhibitory concentration (IC50) in the experiment on WM3928 cells is no more than 100 nM. Still for that read-out and setting: the figure for `CNC(=O)c1cc(-c2cc(-c3cc(NC(=O)c4ccnc(C(C)(C)F)c4)ccc3Cl)ccn2)ccn1` [Example 485] is no more than 100 nM.

For the molecule `Cc1ccc(NC(=O)c2ccnc(C(C)(C)F)c2)cc1-c1cnnc(-c2ccnc(C(N)=O)c2)c1` [Example 486], the figures for the 50% inhibitory concentration (IC50) in the experiment on WM3928 cells and in the experiment on Miapaca-2 cells were 100 to 500 nM and 1000 to 10000 nM, respectively. For the molecule `Cc1ccc(NC(=O)c2ccnc(C(C)(C)F)c2)cc1-c1cc(-c2ccnc(C(N)=O)c2)ncc1F` [Example 490], the half-inhibitory concentration (IC50) in the experiment on WM3928 cells lay within 100 to 500 nM. Same read-out and setting: the figure for `CNC(=O)c1cc(-c2cc(-c3cc(NC(=O)c4ccnc(C(C)(C)F)c4)c(F)cc3C)ccn2)ccn1` [Example 497] is 100 to 500 nM; for `CNC(=O)c1cc(-c2cc(-c3cc(NC(=O)c4ccnc(C(C)(C)F)c4)ncc3C)ccn2)ccn1` [Example 499] it is 100 to 500 nM. `[2H]C([2H])([2H])NC(=O)c1cc(-c2cc(-c3cc(NC(=O)c4ccnc(C(C)(C)F)c4)ccc3C)ccn2)ccn1` [Example 489]: the IC50 was no more than 100 nM in the experiment with WM3928 cells and 100 to 500 nM in the experiment on Miapaca-2 cells. Regarding `CNC(=O)c1cc(-c2cc(-c3cc(NC(=O)c4ccnc(C5(F)CC5)c4)ccc3C)cc(C)n2)ccn1` [Example 496], in the experiment with WM3928 cells, the 50% inhibitory concentration (IC50) is no more than 100 nM. Take `[2H]C([2H])([2H])NC(=O)c1cc(-c2cc(-c3cc(NC(=O)c4ccnc(C(C)(C)F)c4)ccc3C)cc(C)n2)ccn1` [Example 493]: the figures for the half-maximal inhibitory concentration (IC50) in the experiment with WM3928 cells and in the experiment with Miapaca-2 cells were no more than 100 nM and 100 to 500 nM, respectively.

Consider `Cc1ccc(NC(=O)c2ccnc(C(C)(C)F)c2)cc1-c1cc(-c2ccnc(C(N)=O)c2)ncn1` [Example 488], for which the IC50 in the experiment with WM3928 cells was 100 to 500 nM. Take `Cc1ccc(NC(=O)c2cccc(C(F)(F)F)c2)cc1-c1ccnc(-c2ccnc(NC(=O)C3CC3)c2)c1` [Example 502]: the concentration for half-maximal inhibition (IC50) in the experiment with WM3928 cells was no more than 100 nM.

As for `CNC(=O)c1cc(-c2cc(-c3cc(NC(=O)c4cnnc(C(C)(F)F)c4)ccc3C)ccn2)ccn1` [Example 492], the IC50 in the experiment with WM3928 cells was in the range of 100 to 500 nM. In the case of `CNC(=O)c1cc(-c2cc(-c3cc(NC(=O)c4ccnc(C5(F)CC5)c4)ccc3C)ccn2)ccn1` [Example 487], the IC50 with WM3928 cells was no more than 100 nM; with Miapaca-2 cells, 100 to 500 nM.

In the case of `CNC(=O)c1cc(-c2cc(-c3cc(NC(=O)c4ccnc(C(C)(C)F)n4)ccc3C)ccn2)ccn1` [Example 494], in the experiment on WM3928 cells, the IC50 was in the range of 500 to 1000 nM. `Cc1ccc(NC(=O)c2ccc(C(F)(F)F)cc2)cc1-c1ccnc(-c2ccnc(NC(=O)C3CC3)c2)c1` [Example 501]: the IC50 in the experiment on WM3928 cells lay within 100 to 500 nM.

For `Cc1ccc(NC(=O)c2cc(C(F)(F)F)ccc2F)cc1-c1ccnc(-c2ccnc(NC(=O)C3CC3)c2)c1` [Example 503], the half-maximal inhibitory concentration (IC50) with WM3928 cells is no more than 100 nM.

Consider `CNC(=O)c1cc(-c2cc(-c3cc(NC(=O)c4cnnc(C(C)(C)F)c4)ccc3C)ccn2)ccn1` [Example 495], for which, in the experiment with WM3928 cells, the IC50 was no more than 100 nM. The same measure, in the same setting: the value for `Cc1ccc(NC(=O)c2cn(C)nc2C(F)(F)F)cc1-c1cncc(-c2ccnc(NC(=O)C3CC3)c2)c1` [Example 500] was 500 to 1000 nM.
